This passage reports IC50 results from patent US11845760B2, “PRMT5 inhibitors” (AMGEN INC., priority 2020, dated 2023).

Where two headings read alike, the source gives them in different places.

One experiment has as its system HCT116 WT cells. Briefly: HCT116 WT cell line proliferation (CellTiter-Glo cell viability, 6 days). The settings on record: HCT116 WT (parent) cells, 6 days of treatment, CellTiter-Glo cell viability, read-out: HCT-116 WT IC50. The experiment is classed as cell-based. The gist of the method:
(§1)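 Isogenic HCT116 pair (parent and MTAP double-allele knockout) in RPMI 1640 + 10% FBS, exposed 6 days to compound: 8–9-point 1:3 dilutions from 1 or 10 μM top, or 22-point 1:2 dilutions from 10 or 50 μM top. CellTiter-Glo luminescence; IC50 from sigmoidal fit (Hill −1) or 4-parameter logistic.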
For orientation: ATP-based viability assays read luminescence as a measure of living cells.

The next experiment has as its system HCT116 MTAP null cells. The experiment in a line: HCT116 MTAP null cell line proliferation (CellTiter-Glo cell viability, 6 days). The experiment is classed as cell-based. The conditions noted are these: HCT116 MTAP null cells, 6 days of treatment, CellTiter-Glo cell viability, read-out: HCT-116 MTAP null IC50. The gist of the method: as §1

As usually defined, the IC50 is the point on the concentration scale where inhibition reaches its midpoint. Consider `Cc1ccccc1C1COCCN1C(=O)c1ccc2nc(N)c3c(c2c1)COC3` (racemic) [Example 362, (4-amino-1,3-dihydrofuro[3,4-c]quinolin-8-yl)-[rac-(3S)-3-(o-tolyl)morpholin-4-yl]methanone], for which the concentration for half-maximal inhibition (IC50) with HCT116 WT cells (Homo sapiens, HCT-116, 144 h) was > 10000 nM; in the experiment with HCT116 MTAP null cells (HCT116-MTAP null, 144 h) it was 3410 nM.

As for `Nc1nc2cc(Cl)c(C(=O)N3CCOCC3c3ccc(OC(F)F)nc3)cc2c2c1COC2` (racemic) [Example 384, (4-amino-7-chloro-1,3-dihydrofuro[3,4-c]quinolin-8-yl)((3R)-3-(6-(difluoromethoxy)-3-pyridinyl)-4-morpholinyl)methanone and (4-amino-7-chloro-1,3-dihydrofuro[3,4-c]quinolin-8-yl)((3S)-3-(6-(difluoromethoxy)-3-pyridinyl)-4-morpholinyl)methanone], the half-maximal inhibitory concentration (IC50) turned out to be 1680 nM in the experiment with HCT116 WT cells and 23 nM in the experiment on HCT116 MTAP null cells.

With `CCOc1ccc([C@@H]2COC[C@H](C)N2C(=O)c2cc3c4c(c(N)nc3cn2)[C@@H](C)OC4)nn1` (racemic) [Example 326, ((3R)-4-amino-3-methyl-1,3-dihydrofuro[3,4-c][1,7]naphthyridin-8-yl)((3R,5S)-3-(6-ethoxy-3-pyridazinyl)-5-methyl-4-morpholinyl)methanone and ((3R)-4-amino-3-methyl-1,3-dihydrofuro[3,4-c][1,7]naphthyridin-8-yl)((3S,5R)-3-(6-ethoxy-3-pyridazinyl)-5-methyl-4-morpholinyl)methanone], the half-maximal inhibitory concentration (IC50) with HCT116 WT cells (Homo sapiens, HCT-116, 144 h) turned out to be 2580 nM; in the experiment on HCT116 MTAP null cells (HCT116-MTAP null, 144 h), 72 nM.

As to `C[C@H]1OCc2c1c(N)nc1cnc(C(=O)N3CCOC[C@@H]3c3ccc(C(F)(F)F)cc3)cc21` (single isomer, unassigned) [Example 452], the IC50 in the experiment on HCT116 WT cells (Homo sapiens, HCT-116, 144 h) was 3460 nM; in the experiment on HCT116 MTAP null cells (HCT116-MTAP null, 144 h), 49 nM.

For `Cn1ncc2c(N)nc3cc(F)c(C(=O)N4CC[C@H](Oc5ccc(C(F)(F)F)cc5)C4)cc3c21` (single isomer, unassigned) [Example 472], the IC50 in the experiment with HCT116 WT cells (Homo sapiens, HCT-116, 144 h) is 4470 nM; in the experiment on HCT116 MTAP null cells (HCT116-MTAP null, 144 h) it was 190 nM.

Consider `C[C@H]1OCc2c1c(N)nc1cnc(C(=O)N3CCOC[C@@H]3c3ccc(C(F)(F)C(F)(F)F)cc3)cc21` (single isomer, unassigned) [Example 454], for which the IC50 in the experiment with HCT116 WT cells (Homo sapiens, HCT-116, 144 h) came to 778 nM; in the experiment with HCT116 MTAP null cells (HCT116-MTAP null, 144 h) it was 24 nM.

As to `Nc1nc2cnc(C(=O)N3CCOC[C@H]3c3ccc(S(F)(F)(F)(F)F)cc3)cc2c2c1COC2` (single isomer, unassigned) [Example 457], the 50% inhibitory concentration (IC50) in the experiment on HCT116 WT cells (Homo sapiens, HCT-116, 144 h) is 18600 nM; with HCT116 MTAP null cells (HCT116-MTAP null, 144 h) it was 8710 nM.

`Cn1ncc2c3cc(C(=O)N4CCOCC4c4ccc(C(F)(F)F)cn4)ccc3nc(N)c21` (racemic) [Example 499, (4-amino-3-methyl-3H-pyrazolo[3,4-c]quinolin-8-yl)((3R)-3-(5-(trifluoromethyl)-2-pyridinyl)-4-morpholinyl)methanone and (4-amino-3-methyl-3H-pyrazolo[3,4-c]quinolin-8-yl)((3S)-3-(5-(trifluoromethyl)-2-pyridinyl)-4-morpholinyl)methanone]: the IC50 with HCT116 WT cells (Homo sapiens, HCT-116, 144 h) worked out at 36600 nM; in the experiment with HCT116 MTAP null cells (HCT116-MTAP null, 144 h), 1100 nM.

For the molecule “(4-amino-7-chloro-1,3- dihydrofuro[3,4-c]quinolin-8- yl)((3R,4S)-3-ethyl-4-(4- methylphenyl)-1- pyrrolidinyl)methanone and (4-amino-7-chloro-1,3- dihydrofuro[3,4-c]quinolin-8- yl)((3S,4R)-3-ethyl-4-(4- methylphenyl)-1- pyrrolidinyl)methanone [Example 424]”, the values for the concentration for half-maximal inhibition (IC50) in the experiment on HCT116 WT cells and in the experiment with HCT116 MTAP null cells were 5690 nM and 345 nM, respectively.

For `Nc1nc2cnc(C(=O)N3CCOC[C@@H]3c3cnc(C(F)(F)F)nc3)cc2c2c1COC2` (single isomer, unassigned) [Example 612], the IC50 is > 10000 nM in the experiment on HCT116 WT cells (Homo sapiens, HCT-116, 144 h) and > 1000 nM in the experiment with HCT116 MTAP null cells (HCT116-MTAP null, 144 h).

Turning to `C[C@H]1OCc2c1c(N)nc1ccc(C(=O)N3CCOC[C@H]3c3ccc(C(F)(F)F)cn3)cc21` (racemic) [Example 343, ((3R)-4-amino-3-methyl-1,3-dihydrofuro[3,4-c]quinolin-8-yl)((3R)-3-(5-(trifluoromethyl)-2-pyridinyl)-4-morpholinyl)methanone and ((3R)-4-amino-3-methyl-1,3-dihydrofuro[3,4-c]quinolin-8-yl)((3S)-3-(5-(trifluoromethyl)-2-pyridinyl)-4-morpholinyl)methanone], the concentration for half-maximal inhibition (IC50) was 16200 nM with HCT116 WT cells (Homo sapiens, HCT-116, 144 h) and 308 nM in the experiment on HCT116 MTAP null cells (HCT116-MTAP null, 144 h).

For the molecule `Cn1ncc2c3cc(C(=O)N4CCOC[C@@H]4c4ccc(S(F)(F)(F)(F)F)cc4)c(Cl)cc3nc(N)c21` [Example 419, (4-amino-7-chloro-3-methyl-3H-pyrazolo[3,4-c]quinolin-8-yl)((3S)-3-(4-(pentafluoro-lambda~6~-sulfanyl)phenyl)-4-morpholinyl)methanone], the IC50 is 548 nM with HCT116 WT cells (Homo sapiens, HCT-116, 144 h) and 23 nM with HCT116 MTAP null cells (HCT116-MTAP null, 144 h).

Turning to `Nc1nc2cnc(C(=O)N3CCOC[C@@H]3c3c(F)cc(Br)cc3F)cc2c2c1COC2` (single isomer, unassigned) [Example 602], the IC50 in the experiment on HCT116 WT cells (Homo sapiens, HCT-116, 144 h) amounted to 10000 nM; with HCT116 MTAP null cells (HCT116-MTAP null, 144 h), 149 nM.

Regarding `Nc1nc2ccc(C(=O)N3CCOC[C@H]3c3ccc(C(F)(F)F)cc3)cc2c2c1COC2` (single isomer, unassigned) [Example 455], the IC50 was > 10000 nM in the experiment on HCT116 WT cells (Homo sapiens, HCT-116, 144 h) and > 1000 nM with HCT116 MTAP null cells (HCT116-MTAP null, 144 h).

For `Nc1nc2cnc(C(=O)N3CCOC[C@@H]3c3ccc(OC(F)(F)F)cc3)cc2c2c1COC2` [Example 506, (4-amino-1,3-dihydrofuro[3,4-c][1,7]naphthyridin-8-yl)-[(3S)-3-[4-(trifluoromethoxy)phenyl]morpholin-4-yl]methanone], the 50% inhibitory concentration (IC50) was determined as 2530 nM with HCT116 WT cells (Homo sapiens, HCT-116, 144 h) and 61 nM in the experiment with HCT116 MTAP null cells (HCT116-MTAP null, 144 h).

Regarding `Nc1nc2cnc(C(=O)N3CCOC[C@@H]3c3ccc(S(F)(F)(F)(F)F)cc3)cc2c2c1COC2` (single isomer, unassigned) [Example 458], the IC50 with HCT116 WT cells (Homo sapiens, HCT-116, 144 h) worked out at 454 nM; in the experiment with HCT116 MTAP null cells (HCT116-MTAP null, 144 h), 18 nM.

With `Cn1ncc2c(N)nc3cc(Cl)c(C(=O)N4CC[C@H](c5ccc(C(F)(F)F)cc5)C4)cc3c21` [Example 443, (4-amino-7-chloro-1-methyl-1H-pyrazolo[4,3-c]quinolin-8-yl)((3R)-3-(4-(trifluoromethyl)phenyl)-1-pyrrolidinyl)methanone], the half-maximal inhibitory concentration (IC50) with HCT116 WT cells (Homo sapiens, HCT-116, 144 h) was 793 nM; in the experiment on HCT116 MTAP null cells (HCT116-MTAP null, 144 h) it was 13 nM.

On to `Nc1nc2cnc(C(=O)N3CCOC[C@@H]3c3ccc(C(F)(F)F)cc3)cc2c2c1COC2` (single isomer, unassigned) [Example 481], for which the concentration for half-maximal inhibition (IC50) was 4330 nM in the experiment on HCT116 WT cells (Homo sapiens, HCT-116, 144 h) and 107 nM in the experiment on HCT116 MTAP null cells (HCT116-MTAP null, 144 h).

On to `C[C@H]1OCc2c1c(N)nc1ccc(C(=O)N3C[C@@H](O)[C@H](c4ccc(Cl)cc4)C3)cc21` (single isomer, unassigned) [Example 466], for which the half-inhibitory concentration (IC50) with HCT116 WT cells (Homo sapiens, HCT-116, 144 h) turned out to be 16600 nM; with HCT116 MTAP null cells (HCT116-MTAP null, 144 h), 189 nM.

On to `CC(C)Oc1ccc([C@@H]2COC[C@H](C)N2C(=O)c2cc3c4c(c(N)nc3cn2)COC4)cn1` (racemic) [Example 306, (4-amino-1,3-dihydrofuro[3,4-c][1,7]naphthyridin-8-yl)((3R,5S)-3-methyl-5-(6-(2-propanyloxy)-3-pyridinyl)-4-morpholinyl)methanone and (4-amino-1,3-dihydrofuro[3,4-c][1,7]naphthyridin-8-yl)((3S,5R)-3-methyl-5-(6-(2-propanyloxy)-3-pyridinyl)-4-morpholinyl)methanone], for which the half-maximal inhibitory concentration (IC50) is 2130 nM in the experiment with HCT116 WT cells (Homo sapiens, HCT-116, 144 h) and 96 nM in the experiment with HCT116 MTAP null cells (HCT116-MTAP null, 144 h).
